Results published in US20160193278A1, “METHODS AND COMPOSITIONS FOR PREVENTING OR TREATING LEBER'S HEREDITARY OPTIC NEUROPATHY” (STEALTH BIOTHERAPEUTICS CORP, priority 2013, published 2016).
Where no end group is shown, it is not given here. [ ]: non-standard residue; d: D form.

Tests used:
[1] = system: several mammalian cell types; details: cited from earlier work
[2] = system: excessive production of reactive oxygen species; details: cited from earlier work
LHON patients [3] = details: 900 mg/d for 24 weeks, vs placebo; preliminary press release; cited from earlier work
LHON patients [4] = details: cited from earlier work
[5] = system: brain mitochondrial H2O2 production; assay: Brain mitochondrial / synaptosome H2O2 production with rotenone; format: biochemical, mouse; details: for decrease of the rate of generation of H2O2 during RET conditions: succinate plus oligomycin
quails = details: group with high zeaxanthin concentrations; cited from earlier work
[6] = system: human subjects at risk of having, suspected of having, or diagnosed as having LHON; assay: Prevention and treatment of LHON in human subjects (Example 3); format: in vivo
Experimental: Human subjects at risk of having, suspected of having, or diagnosed as having LHON are administered a therapeutically effective amount of an aromatic-cationic peptide of the present technology, such as D-Arg-2′,6′-Dmt-Lys-Phe-NH2, alone or in conjunction with one or more additional therapeutic agents, on a therapeutic schedule appropriate for the prophylactic/therapeutic needs of the individual.
LHON patients are administered 1-10 μg D-Arg-2′,6′-Dmt-Lys-Phe-NH2 or saline vehicle subcutaneously once daily for 12 months. In another treatment group, LHON patients receive 1 drop of 1%, 3%, or 5% D-Arg-2′,6′-Dmt-Lys-Phe-NH2 ophthalmic solution or saline vehicle in both eyes three times per day for 12 months. Subjects are assessed periodically for signs and symptoms associated with LHON according to one or more criteria described herein.

mu-opioid receptor = mu-opioid receptor (Homo sapiens, UniProt P35372); details: cited from earlier work
[7] = system: LHON cybrid cells (11778/ND4, 3460/ND1, 14484/ND6); assay: ATP synthesis rate in LHON cybrids (Example 4); format: cell-based, human; details: 1-10 μg, compared to untreated LHON cybrid cells
Excerpt: (§1) Cybrid cell lines are constructed using enucleated fibroblasts from a control individual (i.e., negative for LHON) and 3 unrelated probands with LHON as mitochondria donors. One control cybrid cell line and three LHON cybrid cell lines, one for each of the most common pathogenic mutations found in LHON, i.e., mutations at positions 11778/ND4, 3460/ND1, and 14484/ND6 of mtDNA, are produced.
(§2) The mitochondrial donor cytoplast is fused with the osteosarcoma (143B.TK-)-derived 206 cell line (rho^0 206 cell line). All fibroblast cell lines are established from skin biopsy samples or from umbilical cord specimens after having obtained the informed consent of LHON and control patients. […]
(§3) 1 ml of each cybrid cell line at 5×10^6 cells/ml is individually plated in tissue culture plates with growth media. […] After incubation for 1 hour at 37° C., the ATP synthesis rate and cellular respiration are measured.
The ATP synthesis rate is assayed by permeabilizing the cells with digitonin according to the method described by Ouhabi et al., Anal Biochem., 263: 169-175 (1998). […] The ATP content is measured using the luciferin-luciferase chemiluminescent method, e.g., described in Stanley et al., Anal Biochem., 29: 381-392 (1969).

[8] = system: LHON cybrid cells (11778/ND4, 3460/ND1, 14484/ND6); assay: Respiratory rate of digitonin-permeabilized LHON cybrids (Example 4); format: cell-based, human; details: 1-10 μg, compared to untreated LHON cybrid cells
Excerpt: as §1
as §2, with “patients. Cell fusions of fibroblast-derived cytoplasts (enucleated fibroblasts) with the rho^0 206 cells are performed using the protocol, e.g., described in King et al., Science, 246: 500-03 (1989).” for “patients.”
as §3
Respiratory rates of digitonin-permeabilized cell samples are measured at 30° C. using a Clark-type oxygen electrode as previously described by Aicardi et al., Biochem Pharmacol., 31:3703-3705 (1982). The respiratory control ratio (RCR) is evaluated using glutamate-malate as a substrate.

[9] = system: reactive oxygen species (ROS) production; details: known in the art; demonstrated in U.S. Pat. Nos. 7,550,439 and 7,576,061; cited from earlier work
[10] = system: murine model of LHON (ND6 P25L mutation); assay: Prevention of LHON in ND6 P25L mouse model (Example 1); format: in vivo; details: ND6 P25L mice
[11] = system: murine model of LHON (ND6 P25L mutation); assay: Treatment of LHON in ND6 P25L mouse model (Example 2); format: in vivo; details: ND6 P25L mice
[12] = system: caspase activation and apoptosis; details: known in the art; cited from earlier work
[13] = once daily from 0-14 months of age
[14] = once daily from 14-24 months of age

mu-opioid receptor, sequence (P35372 whole entry, species assumed): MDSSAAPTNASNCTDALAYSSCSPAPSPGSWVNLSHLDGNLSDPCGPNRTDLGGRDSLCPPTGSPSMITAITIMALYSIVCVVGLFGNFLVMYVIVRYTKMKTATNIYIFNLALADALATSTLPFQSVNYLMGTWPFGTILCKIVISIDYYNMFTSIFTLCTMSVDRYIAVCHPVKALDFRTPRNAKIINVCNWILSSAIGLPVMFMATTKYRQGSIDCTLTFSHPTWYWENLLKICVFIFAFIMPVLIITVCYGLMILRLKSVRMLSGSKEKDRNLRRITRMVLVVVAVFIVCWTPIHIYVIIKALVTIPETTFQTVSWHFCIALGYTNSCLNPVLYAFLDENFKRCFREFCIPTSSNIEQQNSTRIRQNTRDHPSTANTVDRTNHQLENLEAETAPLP

Compound: 2′,6′-Dmt-D-Arg-Phe-Lys-NH2
- penetration of the plasma membrane [1]: readily penetrates the plasma membrane of several mammalian cell types in an energy-independent manner

Compound: Cc1c(C)c2c(c(C)c1O)CCC(C)(C(=O)O)O2 (stereo not drawn) [Trolox]
- protective effects in vitro [2]: modest protective effects

Compound: COC1=C(OC)C(=O)C(C/C=C(\C)CC/C=C(\C)CC/C=C(\C)CC/C=C(\C)CC/C=C(\C)CC/C=C(\C)CC/C=C(\C)CC/C=C(\C)CC/C=C(\C)CCC=C(C)C)=C(C)C1=O [coenzyme Q-10]
- protective effects in vitro [2]: modest protective effects

Compound: N[C@@H](CCC(=O)N[C@@H](CS)C(=O)NCC(=O)O)C(=O)O [glutathione]
- protective effects in vitro [2]: modest protective effects

Compound: COC1=C(OC)C(=O)C(CCCCCCCCCCO)=C(C)C1=O [idebenone]
- final visual acuity (LHON patients [3]): better final visual acuity than the placebo group
- diameter of the central scotomas after treatment (LHON patients [4]; one 11778/ND4 LHON patient, from about 20 degrees): less than 5 degrees
- recovery of visual function (LHON patients [4]; seven LHON patients, about 450 mg/d): recovery of visual acuity, color vision, and visual fields

Compound: C=C(C)[C@H]1Cc2c(ccc3c2O[C@@H]2COc4cc(OC)c(OC)cc4[C@@H]2C3=O)O1 [rotenone]
- decrease of the rate of generation of H2O2 during RET conditions ([5]; ND6 P25L mice): approximately 59%
- increase of the rate of H2O2 production during forward electron transfer ([5]; ND6 P25L synaptosomes): ~2.7 fold
- decrease of the rate of generation of H2O2 during RET conditions ([5]; wild-type animals): approximately 79%
- increase of the rate of H2O2 production during forward electron transfer ([5]; wild-type synaptosomes): ~2.3 fold

Compound: CC1=C(/C=C/C(C)=C/C=C/C(C)=C/C=C/C=C(C)/C=C/C=C(C)/C=C/C2=C(C)C[C@@H](O)CC2(C)C)C(C)(C)C[C@H](O)C1 [zeaxanthin]
- light damage of the retina (apoptotic photoreceptor cells) (quails): minimal damage

Compound: D-Arg-2′,6′-Dmt-Lys-Phe-NH2
- symptoms of LHON ([6]; human subjects at risk of, suspected of or diagnosed as having LHON): prevent the onset of, delay the onset of, or reduce the severity of the symptoms of LHON
- effect of combination compared to any individual therapeutic agent alone ([6]; in combination with one or more additional therapeutic agents, human subjects): synergistic effects
- mu-opioid receptor agonist activity (mu-opioid receptor): does not have mu-opioid receptor agonist activity
- ATP synthesis rate [7]: greater ATP synthesis rate
- respiratory rate [8]: higher respiratory rate
- anti-oxidant properties [9]: possess anti-oxidant properties
- RGC axonal swelling and preferential loss of smallest fibers [10, 13]: prevent the onset of, delay the onset of, or reduce the severity of these effects
- abnormal mitochondrial morphology and proliferation in RGC axons [10, 13]: prevent the onset of, delay the onset of, or reduce the severity of these effects
- altered liver mitochondria complex I activity [10, 13]: prevent the onset of, delay the onset of, or reduce the severity of these effects
- effects of the ND6 P25L mutation; LHON and its symptoms [10, 13]: prevent the onset of, delay the onset of, and/or reduce the severity (e.g., ameliorate) of the effects of the ND6 P25L mutation
- forward / reverse electron flow ROS production in liver mitochondria [10, 13]: prevent the onset of, delay the onset of, or reduce the severity of these effects
- reduced complex I activity and altered ROS production in synaptosomes [10, 13]: prevent the onset of, delay the onset of, or reduce the severity of these effects
- reduced retinal response (electroretinogram deficits) [10, 13]: prevent the onset of, delay the onset of, or reduce the severity of (e.g. ameliorate) these effects
- effect of combination compared to any individual therapeutic agent alone ([10]; in combination with one or more additional therapeutic agents, prevention): synergistic effects
- RGC axonal swelling and preferential loss of smallest fibers [11, 14]: reduce or eliminate the effects of the ND6 P25L mutation
- abnormal mitochondrial morphology and proliferation in RGC axons [11, 14]: reduce or eliminate the effects of the ND6 P25L mutation
- altered liver mitochondria complex I activity [11, 14]: reduce or eliminate the effects of the ND6 P25L mutation
- forward / reverse electron flow ROS production in liver mitochondria [11, 14]: reduce or eliminate the effects of the ND6 P25L mutation
- reduced complex I activity and altered ROS production in synaptosomes [11, 14]: reduce or eliminate these effects of the ND6 P25L mutation
- reduced retinal response (electroretinogram deficits) [11, 14]: reduce or eliminate the effects of the ND6 P25L mutation
- effect of combination compared to any individual therapeutic agent alone ([11]; in combination with one or more additional therapeutic agents, treatment): synergistic effects
- caspase activation and apoptosis [12]: capacity to inhibit caspase activation and apoptosis

Compound: F[dR]FK-NH2
- mu-opioid receptor agonist activity (mu-opioid receptor): does not have mu-opioid receptor agonist activity

Compound: Tyr-D-Arg-Phe-Lys-NH2
- mu-opioid receptor agonist activity (mu-opioid receptor): has mu-opioid receptor agonist activity
